Results on 17 compounds are retold here after patent US12421211B2, “Heterocyclic compounds” (Hoffmann-La Roche Inc., priority 2021, dated 2025).

Molecules are shown by their SMILES. Counter-ions that a name gives are not always drawn. Like-named read-outs stand apart in the source and are kept apart here.

By IC90 is commonly meant the concentration at which the effect reaches the 90% level.

The test has as its system Acinetobacter baumannii ATCC17961. The experiment in a line: Antimicrobial susceptibility testing: 90% growth inhibitory concentration (IC90) determination. The class given is cell-based. Conditions: read-out: ATCC 17961 IC90. An outline of the steps:
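A. baumannii ATCC17961 at ~5×10^5 CFU/ml in Iso-Sensitest broth exposed to 10-point twofold dilutions (e.g. 50–0.097 μM final), 35±2° C. OD600 read every 20 minutes over 16h; IC50 and IC90 derived from inhibition during logarithmic growth.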

The mark [1] stands for this setting: Acinetobacter baumannii, ATCC17961, 16 h, 90% growth inhibitory concentration, Acinetobacter baumannii ATCC17961, Iso-Sensitest broth, OD 600 nm over 16 h.
Where [2] appears, read: 90% growth inhibitory concentration, Acinetobacter baumannii ATCC17961, Iso-Sensitest broth, OD 600 nm over 16 h, formic acid, formate.
The mark [3] stands for this setting: Acinetobacter baumannii, ATCC17961, 16 h.

Consider `COCCn1ncc(-c2ccc(-c3cnc(C(=O)Nc4ccc(C(=O)N5CCN(C(=O)C6CC[N+](CC(=O)O)(CC7CNC7)CC6)CC5)c(Cl)c4)n3C)c(F)c2Cl)c1C` (centres unmarked) [Example B28, 2-[1-(azetidin-3-ylmethyl)-4-[4-[2-chloro-4-[[5-[3-chloro-2-fluoro-4-[1-(2-methoxyethyl)-5-methyl-pyrazol-4-yl]phenyl]-1-methyl-imidazole-2-carbonyl]amino]benzoyl]piperazine-1-carbonyl]piperidin-1-ium-1-yl]acetic acid; formate], for which, under setting [1], the IC90 was found to be 230 nM.
With `COCCn1ncc(-c2ccc(-c3cnc(C(=O)Nc4ccc(C(=O)N5CCN(C(=O)C6CC[N+](CC(=O)O)(CC7CNC7)CC6)CC5)c(Cl)c4)n3C)c(F)c2F)c1C` (centres unmarked) [Example B29, 2-[1-(azetidin-3-ylmethyl)-4-[4-[2-chloro-4-[[5-[2,3-difluoro-4-[1-(2-methoxyethyl)-5-methyl-pyrazol-4-yl]phenyl]-1-methyl-imidazole-2-carbonyl]amino]benzoyl]piperazine-1-carbonyl]piperidin-1-ium-1-yl]acetic acid; formic acid; formate], under setting [2], the IC90 was found to be 340 nM.
Turning to `COCCn1ncc(-c2ccc(-c3cnc(C(=O)Nc4ccc(C(=O)N5CCN(C(=O)C6CC[N+](CC(=O)O)(CC7CNC7)CC6)CC5)c(Cl)c4)n3C)c(F)c2F)c1C` (centres unmarked) [Example B30, 2-[1-(azetidin-3-ylmethyl)-4-[4-[2-chloro-4-[[5-[2,3-difluoro-4-[1-(2-methoxyethyl)-5-methyl-pyrazol-4-yl]phenyl]-1-methyl-imidazole-2-carbonyl]amino]benzoyl]piperazine-1-carbonyl]piperidin-1-ium-1-yl]acetic acid; formic acid; formate], the IC90 under setting [2] was 190 nM.
`COCCn1ncc(-c2ccc(-c3cnc(C(=O)Nc4ccc(C(=O)N5CCN(C(=O)C6CCN(CC7C[N+](C)(C)C7)CC6)CC5)c(Cl)c4)n3C)c(F)c2F)c1C` [Example B31, N-[3-chloro-4-[4-[1-[(1,1-dimethylazetidin-1-ium-3-yl)methyl]piperidine-4-carbonyl]piperazine-1-carbonyl]phenyl]-5-[2,3-difluoro-4-[1-(2-methoxyethyl)-5-methyl-pyrazol-4-yl]phenyl]-1-methyl-imidazole-2-carboxamide]: under setting [3], the 90% effect concentration (IC90) worked out at 71 nM.
On the same count and under the same terms, the result for `COCCn1ncc(-c2ccc(-c3cnc(C(=O)Nc4ccc(C(=O)N5CCN(C(=O)C6CC[N+](C)(CC(F)F)CC6)CC5)c(Cl)c4)n3C)c(F)c2F)c1C` (centres unmarked) [Example B32, N-[3-chloro-4-[4-[1-(2,2-difluoroethyl)-1-methyl-piperidin-1-ium-4-carbonyl]piperazine-1-carbonyl]phenyl]-5-[2,3-difluoro-4-[1-(2-methoxyethyl)-5-methyl-pyrazol-4-yl]phenyl]-1-methyl-imidazole-2-carboxamide; 2,2,2-trifluoroacetate] reads 58 nM; that for `COCCn1ncc(-c2ccc(-c3cnc(C(=O)Nc4ccc(C(=O)N5CCN(C(=O)C6CCN(CCS(N)(=O)=O)CC6)CC5)c(Cl)c4)n3C)c(F)c2F)c1C` [Example B33, N-[3-chloro-4-[4-[1-(2-sulfamoylethyl)piperidine-4-carbonyl]piperazine-1-carbonyl]phenyl]-5-[2,3-difluoro-4-[1-(2-methoxyethyl)-5-methyl-pyrazol-4-yl]phenyl]-1-methyl-imidazole-2-carboxamide], 820 nM.
Same read-out and setting: under `Cc1n[nH]cc1-c1ccc(-c2cnc(C(=O)Nc3ccc(C(=O)N4CCN(C(=O)C5CCC[N+]5(C)CCO)CC4)c(Cl)c3)n2C)c(F)c1F` (centres unmarked) [Example B35, N-[3-chloro-4-[4-[1-(2-hydroxyethyl)-1-methyl-pyrrolidin-1-ium-2-carbonyl]piperazine-1-carbonyl]phenyl]-5-[2,3-difluoro-4-(3-methyl-1H-pyrazol-4-yl)phenyl]-1-methyl-imidazole-2-carboxamide; 2,2,2-trifluoroacetate] stands 130 nM; under `Cc1n[nH]cc1-c1ccc(-c2cnc(C(=O)Nc3ccc(C(=O)N4CCN(C(=O)[C@@H]5C[C@@H](O)C[N+]5(C)CCO)CC4)c(Cl)c3)n2C)c(F)c1F` (stereo partly drawn) [Example B36, N-[3-chloro-4-[4-[(2S,4R)-4-hydroxy-1-(2-hydroxyethyl)-1-methyl-pyrrolidin-1-ium-2-carbonyl]piperazine-1-carbonyl]phenyl]-5-[2,3-difluoro-4-(3-methyl-1H-pyrazol-4-yl)phenyl]-1-methyl-imidazole-2-carboxamide; 2,2,2-trifluoroacetate], 110 nM.
Take `COCCn1ncc(-c2ccc(-c3cnc(C(=O)Nc4ccc(C(=O)N5CCN(C(=O)C6CC[N+](CC(=O)O)(CC7CNC7)CC6)CC5)c(Cl)c4)n3C)c(Cl)c2F)c1C` (centres unmarked) [Example B37, 2-[1-(azetidin-3-ylmethyl)-4-[4-[2-chloro-4-[[5-[2-chloro-3-fluoro-4-[1-(2-methoxyethyl)-5-methyl-pyrazol-4-yl]phenyl]-1-methyl-imidazole-2-carbonyl]amino]benzoyl]piperazine-1-carbonyl]piperidin-1-ium-1-yl]acetic acid; formate]: under setting [1], the IC90 stood at 200 nM.
For `COCCn1ncc(-c2ccc(-c3cnc(C(=O)Nc4ccc(C(=O)N5CCN(C(=O)N6CC[N+](CC(=O)O)(CC7CNC7)CC6)CC5)c(Cl)c4)n3C)c(F)c2F)c1C` [Example B38, 2-[1-(azetidin-3-ylmethyl)-4-[4-[2-chloro-4-[[5-[2,3-difluoro-4-[1-(2-methoxyethyl)-5-methyl-pyrazol-4-yl]phenyl]-1-methyl-imidazole-2-carbonyl]amino]benzoyl]piperazine-1-carbonyl]piperazin-1-ium-1-yl]acetic acid; formate], the IC90 under setting [1] worked out at 300 nM.
Regarding `COCCn1ncc(-c2ccc(-c3cnc(C(=O)Nc4ccc(C(=O)N5CCN(C(=O)C6CC[N+](CC(=O)O)(CC7CNC7)CC6)CC5)c(Cl)c4)n3C)c(C)c2F)c1C` (centres unmarked) [Example B39, 2-[1-(azetidin-3-ylmethyl)-4-[4-[2-chloro-4-[[5-[3-fluoro-4-[1-(2-methoxyethyl)-5-methyl-pyrazol-4-yl]-2-methyl-phenyl]-1-methyl-imidazole-2-carbonyl]amino]benzoyl]piperazine-1-carbonyl]piperidin-1-ium-1-yl]acetic acid; formate], under setting [1], the IC90 was found to be 250 nM.
The same measure, in the same setting: the result for `COCCn1ncc(-c2cc(C)c(-c3cnc(C(=O)Nc4ccc(C(=O)N5CCN(C(=O)C6CC[N+](CC(=O)O)(CC7CNC7)CC6)CC5)c(Cl)c4)n3C)cc2Cl)c1C` (centres unmarked) [Example B40, 2-[1-(azetidin-3-ylmethyl)-4-[4-[2-chloro-4-[[5-[5-chloro-4-[1-(2-methoxyethyl)-5-methyl-pyrazol-4-yl]-2-methyl-phenyl]-1-methyl-imidazole-2-carbonyl]amino]benzoyl]piperazine-1-carbonyl]piperidin-1-ium-1-yl]acetic acid; formate] reads 1800 nM.
Turning to `COCCn1ncc(-c2ccc(-c3cnc(C(=O)Nc4ccc(C(=O)N5CCN(C(=O)C[N+]6(C)CCC(O)C6)CC5)c(Cl)c4)n3C)c(F)c2F)c1C` (centres unmarked) [Example C1, N-[3-chloro-4-[4-[2-(3-hydroxy-1-methyl-pyrrolidin-1-ium-1-yl)acetyl]piperazine-1-carbonyl]phenyl]-5-[2,3-difluoro-4-[1-(2-methoxyethyl)-5-methyl-pyrazol-4-yl]phenyl]-1-methyl-imidazole-2-carboxamide; formate], the IC90 under setting [3] was 45 nM.
Regarding `COCCn1ncc(-c2ccc(-c3cnc(C(=O)Nc4ccc(C(=O)N5CCN(C(=O)C[N+]6(C)CCC(N)C6)CC5)c(Cl)c4)n3C)c(F)c2F)c1C` (centres unmarked) [Example C2, N-[4-[4-[2-(3-amino-1-methyl-pyrrolidin-1-ium-1-yl)acetyl]piperazine-1-carbonyl]-3-chloro-phenyl]-5-[2,3-difluoro-4-[1-(2-methoxyethyl)-5-methyl-pyrazol-4-yl]phenyl]-1-methyl-imidazole-2-carboxamide; formic acid; formate], under setting [1], the IC90 came out at 41 nM.
Same read-out and setting: under `COCCn1cc(-c2ccc(-c3cnc(C(=O)Nc4ccc(C(=O)N5CCN(C(=O)C[N+]6(C)CCC(N)C6)CC5)c(Cl)c4)n3C)c(F)c2F)c(C)n1` (centres unmarked) [Example C3, N-[4-[4-[2-(3-amino-1-methyl-pyrrolidin-1-ium-1-yl)acetyl]piperazine-1-carbonyl]-3-chloro-phenyl]-5-[2,3-difluoro-4-[1-(2-methoxyethyl)-3-methyl-pyrazol-4-yl]phenyl]-1-methyl-imidazole-2-carboxamide; formic acid; formate] stands 100 nM; under `COCCn1cc(-c2ccc(-c3cnc(C(=O)Nc4ccc(C(=O)N5CCN(C(=O)C[N+]6(C)C[C@H](OC)[C@@H](N)C6)CC5)c(Cl)c4)n3C)c(F)c2F)c(C)n1` (stereo partly drawn) [Example C5, N-[4-[4-[2-[(3S,4S)-3-amino-4-methoxy-1-methyl-pyrrolidin-1-ium-1-yl]acetyl]piperazine-1-carbonyl]-3-chloro-phenyl]-5-[2,3-difluoro-4-[1-(2-methoxyethyl)-3-methyl-pyrazol-4-yl]phenyl]-1-methyl-imidazole-2-carboxamide; formic acid; formate], 240 nM; under `COCCn1cc(-c2ccc(-c3cnc(C(=O)Nc4ccc(C(=O)N5CCN(C(=O)C[N+]6(C)CCC(O)(CN)C6)CC5)c(Cl)c4)n3C)c(F)c2F)c(C)n1` (centres unmarked) [Example C6, N-[4-[4-[2-[3-(aminomethyl)-3-hydroxy-1-methyl-pyrrolidin-1-ium-1-yl]acetyl]piperazine-1-carbonyl]-3-chloro-phenyl]-5-[2,3-difluoro-4-[1-(2-methoxyethyl)-3-methyl-pyrazol-4-yl]phenyl]-1-methyl-imidazole-2-carboxamide; formic acid; formate], 140 nM.
